The text below walks through data of ChEMBL document CHEMBL4334438, “Discovery of novel glycogen synthase kinase-3α inhibitors: Structure-based virtual screening, preliminary SAR and biological evaluation for treatment of acute myeloid leukemia” (Eur J Med Chem, 2019).

The target in assay [1] is Serine/threonine-protein kinase 32C (Homo sapiens) (UniProt Q86UX6). The experiment in a line: Inhibition of recombinant full-length human STK32C at 1 uM assessed as residual activity at 1 uM using casein as substrate measured after 120 mins in presence of [gamma33P]ATP by scintillation counting method relative to control.
For assay [2], the system named is Mast/stem cell growth factor receptor Kit (Homo sapiens), P10721 [D816V]. The experiment in a line: Inhibition of recombinant human C-Kit D816V mutant (544 to end residues) assessed as residual activity at 1 uM poly(Glu, Tyr) 4:1 as substrate incubated 40 mins in presence of [gamma-33ATP] by scintillation counting based radiometry assay relative to control.
Assay [3] has as its target Protein-tyrosine kinase 6 (Homo sapiens) (UniProt Q13882). The experiment in a line: Inhibition of recombinant full length human BRK assessed as residual activity at 1 uM using poly(Glu, Tyr) 4:1 as substrate incubated for 40 mins in presence of [gamma-33ATP] by scintillation counting based radiometry assay relative to control.
The target in assay [4] is Serine/threonine-protein kinase Chk2 (Homo sapiens) (UniProt O96017). The experiment in a line: Inhibition of recombinant human CHK2 (5 to end residues) assessed as residual activity at 1 uM using KKKVSRSGLYRSPSMPENLNRPR as substrate incubated for 40 mins in presence of [gamma-33ATP] by scintillation counting based radiometry assay relative to control.
Assay [5] addresses Protein kinase C alpha type (Homo sapiens) (UniProt P17252). Nature of the assay: Inhibition of recombinant human full length PKCalpha assessed as residual activity at 1 uM using histone H1 as substrate measured after 40 mins in presence of [gamma33P]ATP by scintillation counting method relative to control.
Assay [6] concerns the target Ephrin type-A receptor 5 (Homo sapiens) (UniProt P54756). Nature of the assay: Inhibition of recombinant human EphA5 (655to 956 residues) assessed as residual activity at 1 uM using poly(Glu, Tyr) 4:1 as substrate at 40 mins in presence of [gamma-33ATP] by scintillation counting based radiometry assay relative to control.
Assay [7] deals with Death-associated protein kinase 2 (Homo sapiens) (UniProt Q9UIK4). The experiment in a line: Inhibition of recombinant full length human DAPK2 assessed as residual activity at 1 uM Calmodulin as substrate incubated 40 mins in presence of [gamma-33ATP] by scintillation counting based radiometry assay relative to control.
In assay [8] the target is Activin receptor type-2A (Homo sapiens) (UniProt P27037). Nature of the assay: Inhibition of human ACTR2A (162 to end residues) assessed as residual activity at 1 uM using casein as substrate incubated for 120 mins in presence of [gamma-33ATP] by scintillation counting based radiometry assay relative to control.
For assay [9], the target named is Dual specificity tyrosine-phosphorylation-regulated kinase 1A (Homo sapiens) (UniProt Q13627). Nature of the assay: Inhibition of recombinant human DYRK1A assessed as residual activity at 1 uM using RRRFRPASPLRGPPK as substrate at 40 mins in presence of [gamma-33ATP] by scintillation counting based radiometry assay relative to control.
Assay [10] relates to Mast/stem cell growth factor receptor Kit (Homo sapiens), P10721 [D816H]. The experiment in a line: Inhibition of recombinant human C-Kit D816H mutant (544 to end residues) assessed as residual activity at 1 uM poly(Glu, Tyr) 4:1 as substrate incubated 40 mins in presence of [gamma-33ATP] by scintillation counting based radiometry assay relative to control.
Assay [11] has as its target Serine/threonine-protein kinase 17A (Homo sapiens) (UniProt Q9UEE5). Nature of the assay: Inhibition of recombinant human DRAK1 assessed as residual activity at 1 uM using KKLNRTLSFAEPG as substrate at 40 mins in presence of [gamma-33ATP] by scintillation counting based radiometry assay relative to control.
The species entered for the next assay is Homo sapiens. Nature of the assay: Inhibition of recombinant human MARK1 V16E/T20S mutant (2 to end residues) assessed as residual activity at 1 uM using KKKVSRSGLYRSPSMPENLNRPR as substrate incubated for 40 mins in presence of [gamma-33ATP by scintillation counting based radiometry assay relative to control.
The target in assay [12] is FKBP12A/mTOR (Homo sapiens) (UniProt P62942+P42345). The experiment in a line: Inhibition of recombinant full length human mTOR/FKBP12 assessed as residual activity at 1 uM measured after 40 mins in presence of [gamma33P]ATP by scintillation counting based radiometry assay relative to control. The assay is classed as protein-complex assay.
In assay [13] the target is Serine/threonine-protein kinase 32B (Homo sapiens) (UniProt Q9NY57). Nature of the assay: Inhibition of recombinant full-length human STK32B at 1 uM assessed as residual activity at 1 uM using casein as substrate measured after 120 mins in presence of [gamma33P]ATP by scintillation counting method relative to control.
Assay [14] addresses Myosin-IIIb (Homo sapiens) (UniProt Q8WXR4). The experiment in a line: Inhibition of recombinant human MYO3B (1 to 306 residues) assessed as residual activity at 1 uM using RLGRDKYKTLRQIRQ as substrate measured after 40 mins in presence of [gamma33P]ATP by scintillation counting method relative to control.
For assay [15], the target named is Cytoplasmic tyrosine-protein kinase BMX (Homo sapiens) (UniProt P51813). Nature of the assay: Inhibition of recombinant full length human BMX assessed as residual activity at 1 uM using poly(Glu, Tyr) 4:1 as substrate incubated for 40 mins in presence of [gamma-33ATP] by scintillation counting based radiometry assay relative to control.
Assay [16] deals with 5'-AMP-activated protein kinase catalytic subunit alpha-1 (Homo sapiens) (UniProt Q13131). The experiment in a line: Inhibition of recombinant full length human AMPKalpha1 assessed as residual activity at 1 uM using AMARAASAAALAR as substrate incubated for 40 mins in presence of [gamma-33ATP] by scintillation counting based radiometry assay relative to control.
Assay [17] has as its target Serine/threonine-protein kinase Nek3 (Homo sapiens) (UniProt P51956). Nature of the assay: Inhibition of recombinant full-length human NEK3 assessed as residual activity at 1 uM using myelin basic protein as substrate measured after 40 mins in presence of [gamma33P]ATP by scintillation counting method relative to control.
The target of assay [18] is Calcium/calmodulin-dependent protein kinase kinase 1 (Homo sapiens) (UniProt Q8N5S9). Nature of the assay: Inhibition of recombinant full length human CaMKK1 assessed as residual activity at 1 uM […] incubated for 40 mins in presence of [gamma-33ATP] by scintillation counting based radiometry assay relative to control.
Assay [19] addresses Serine/threonine-protein kinase 26 (Homo sapiens) (UniProt Q9P289). The experiment in a line: Inhibition of recombinant human MST4 (4 to 304 residues) assessed as residual activity at 1 uM using RLGRDKYKTLRQIRQ as substrate measured after 40 mins in presence of [gamma33P]ATP by scintillation counting method relative to control.
The target of assay [20] is Ribosomal protein S6 kinase alpha-6 (Homo sapiens) (UniProt Q9UK32). The experiment in a line: Inhibition of recombinant full length human Rsk4 assessed as residual activity at 1 uM using LRRASLG as substrate measured after 40 mins in presence of [gamma33P]ATP by scintillation counting method relative to control.
Ribosomal protein S6 kinase alpha-6 (Homo sapiens), sequence (Q9UK32 whole entry): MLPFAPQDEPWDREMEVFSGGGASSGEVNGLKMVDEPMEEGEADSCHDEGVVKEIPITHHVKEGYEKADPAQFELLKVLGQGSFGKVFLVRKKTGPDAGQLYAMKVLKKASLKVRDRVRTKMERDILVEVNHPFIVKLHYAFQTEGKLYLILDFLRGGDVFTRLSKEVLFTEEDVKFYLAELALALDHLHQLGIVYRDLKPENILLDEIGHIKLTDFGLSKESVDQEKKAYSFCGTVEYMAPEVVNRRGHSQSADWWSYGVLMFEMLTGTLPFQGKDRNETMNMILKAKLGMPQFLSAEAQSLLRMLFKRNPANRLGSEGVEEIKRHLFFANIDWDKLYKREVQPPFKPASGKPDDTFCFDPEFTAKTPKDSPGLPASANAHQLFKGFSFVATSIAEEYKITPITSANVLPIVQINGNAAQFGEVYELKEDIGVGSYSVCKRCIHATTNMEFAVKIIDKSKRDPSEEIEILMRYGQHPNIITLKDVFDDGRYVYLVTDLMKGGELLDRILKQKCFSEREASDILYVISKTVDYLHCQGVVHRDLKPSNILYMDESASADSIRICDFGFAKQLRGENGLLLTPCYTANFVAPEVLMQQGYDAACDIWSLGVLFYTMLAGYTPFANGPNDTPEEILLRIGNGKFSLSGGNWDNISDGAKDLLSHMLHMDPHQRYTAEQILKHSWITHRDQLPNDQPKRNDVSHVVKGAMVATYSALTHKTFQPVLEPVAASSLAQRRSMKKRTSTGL

Serine/threonine-protein kinase Nek3 (Homo sapiens), sequence (P51956 whole entry): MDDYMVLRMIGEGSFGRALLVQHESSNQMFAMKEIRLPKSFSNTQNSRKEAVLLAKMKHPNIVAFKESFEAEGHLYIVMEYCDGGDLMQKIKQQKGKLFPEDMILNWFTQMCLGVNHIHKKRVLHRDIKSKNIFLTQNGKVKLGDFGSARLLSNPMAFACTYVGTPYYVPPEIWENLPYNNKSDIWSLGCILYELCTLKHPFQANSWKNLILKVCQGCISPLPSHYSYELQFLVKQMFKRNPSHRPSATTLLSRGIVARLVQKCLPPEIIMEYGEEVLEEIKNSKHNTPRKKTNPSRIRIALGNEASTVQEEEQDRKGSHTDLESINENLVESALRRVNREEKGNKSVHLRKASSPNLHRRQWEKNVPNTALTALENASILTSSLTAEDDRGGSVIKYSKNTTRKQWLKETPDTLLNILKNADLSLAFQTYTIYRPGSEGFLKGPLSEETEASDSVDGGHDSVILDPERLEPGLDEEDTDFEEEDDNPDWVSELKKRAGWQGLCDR
Serine/threonine-protein kinase 26 (Homo sapiens), sequence (Q9P289 2-416 limits assumed): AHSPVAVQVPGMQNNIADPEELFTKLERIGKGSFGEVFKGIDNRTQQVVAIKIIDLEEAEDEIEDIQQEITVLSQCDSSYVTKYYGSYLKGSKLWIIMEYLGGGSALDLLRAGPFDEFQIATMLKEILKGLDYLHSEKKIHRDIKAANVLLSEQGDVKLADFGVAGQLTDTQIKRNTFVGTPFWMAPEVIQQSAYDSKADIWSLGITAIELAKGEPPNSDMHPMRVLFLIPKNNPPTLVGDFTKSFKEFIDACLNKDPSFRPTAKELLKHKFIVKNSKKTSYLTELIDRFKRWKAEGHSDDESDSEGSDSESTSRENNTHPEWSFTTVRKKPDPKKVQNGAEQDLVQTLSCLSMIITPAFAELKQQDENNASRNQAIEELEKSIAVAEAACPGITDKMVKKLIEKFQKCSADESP
5'-AMP-activated protein kinase catalytic subunit alpha-1 (Homo sapiens), sequence (Q13131 whole entry, looked up): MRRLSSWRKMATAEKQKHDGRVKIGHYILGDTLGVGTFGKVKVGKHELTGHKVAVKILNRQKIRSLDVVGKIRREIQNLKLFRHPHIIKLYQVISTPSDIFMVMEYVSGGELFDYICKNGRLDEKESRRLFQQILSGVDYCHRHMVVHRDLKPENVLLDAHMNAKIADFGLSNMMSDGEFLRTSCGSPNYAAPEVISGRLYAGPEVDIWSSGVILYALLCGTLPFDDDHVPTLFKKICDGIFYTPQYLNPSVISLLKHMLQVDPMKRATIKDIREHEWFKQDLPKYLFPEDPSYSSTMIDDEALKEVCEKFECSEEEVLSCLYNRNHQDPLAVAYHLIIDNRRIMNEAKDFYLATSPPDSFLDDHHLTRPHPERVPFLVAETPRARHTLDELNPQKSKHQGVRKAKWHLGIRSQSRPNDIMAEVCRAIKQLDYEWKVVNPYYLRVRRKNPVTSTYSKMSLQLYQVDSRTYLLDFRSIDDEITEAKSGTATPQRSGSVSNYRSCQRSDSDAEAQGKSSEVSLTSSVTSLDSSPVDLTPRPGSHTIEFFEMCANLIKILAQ
FKBP12A/mTOR (Homo sapiens), sequence (P62942 2-108 limits assumed, other chains not shown): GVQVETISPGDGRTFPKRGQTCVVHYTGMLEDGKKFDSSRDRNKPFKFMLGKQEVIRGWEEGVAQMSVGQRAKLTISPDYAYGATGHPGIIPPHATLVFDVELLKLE
Death-associated protein kinase 2 (Homo sapiens), sequence (Q9UIK4 whole entry, looked up): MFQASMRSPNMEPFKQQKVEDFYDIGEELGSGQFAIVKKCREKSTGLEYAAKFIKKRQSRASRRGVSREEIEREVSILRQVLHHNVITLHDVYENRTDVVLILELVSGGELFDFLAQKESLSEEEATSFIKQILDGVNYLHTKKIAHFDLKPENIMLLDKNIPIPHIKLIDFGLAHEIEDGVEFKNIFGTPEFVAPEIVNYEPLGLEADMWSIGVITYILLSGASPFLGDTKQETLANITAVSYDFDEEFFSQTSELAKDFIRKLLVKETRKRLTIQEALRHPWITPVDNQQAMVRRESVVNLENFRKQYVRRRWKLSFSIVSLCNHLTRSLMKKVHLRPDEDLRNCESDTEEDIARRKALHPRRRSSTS
Mast/stem cell growth factor receptor Kit (Homo sapiens), P10721 [D816V], sequence (P10721 whole entry D816V): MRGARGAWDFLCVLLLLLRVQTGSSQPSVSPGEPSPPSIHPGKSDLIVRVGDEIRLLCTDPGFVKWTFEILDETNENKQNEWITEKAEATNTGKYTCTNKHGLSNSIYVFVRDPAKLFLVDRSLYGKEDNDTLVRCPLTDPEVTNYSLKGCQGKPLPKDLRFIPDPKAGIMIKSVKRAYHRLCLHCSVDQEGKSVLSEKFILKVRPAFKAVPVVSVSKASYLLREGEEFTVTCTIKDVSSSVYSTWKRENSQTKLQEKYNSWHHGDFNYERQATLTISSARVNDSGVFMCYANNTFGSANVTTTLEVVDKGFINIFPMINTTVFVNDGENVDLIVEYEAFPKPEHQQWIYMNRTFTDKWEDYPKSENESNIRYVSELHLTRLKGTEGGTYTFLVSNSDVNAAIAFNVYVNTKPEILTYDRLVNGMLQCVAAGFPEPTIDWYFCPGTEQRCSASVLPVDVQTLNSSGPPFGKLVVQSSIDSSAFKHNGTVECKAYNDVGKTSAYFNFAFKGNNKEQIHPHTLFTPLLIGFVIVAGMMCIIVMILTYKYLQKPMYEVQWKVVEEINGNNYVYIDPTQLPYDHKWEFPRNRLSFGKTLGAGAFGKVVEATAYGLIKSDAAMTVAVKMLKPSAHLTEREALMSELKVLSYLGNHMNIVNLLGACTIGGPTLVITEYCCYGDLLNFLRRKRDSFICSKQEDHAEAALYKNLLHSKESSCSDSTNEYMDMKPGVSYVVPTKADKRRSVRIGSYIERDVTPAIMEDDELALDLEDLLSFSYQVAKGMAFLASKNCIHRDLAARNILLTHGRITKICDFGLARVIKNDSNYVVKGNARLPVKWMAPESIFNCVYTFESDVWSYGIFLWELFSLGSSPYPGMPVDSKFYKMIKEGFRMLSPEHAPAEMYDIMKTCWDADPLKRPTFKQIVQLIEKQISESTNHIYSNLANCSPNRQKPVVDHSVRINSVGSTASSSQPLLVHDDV
Serine/threonine-protein kinase 32B (Homo sapiens), sequence (Q9NY57 whole entry, the tested form may be a part): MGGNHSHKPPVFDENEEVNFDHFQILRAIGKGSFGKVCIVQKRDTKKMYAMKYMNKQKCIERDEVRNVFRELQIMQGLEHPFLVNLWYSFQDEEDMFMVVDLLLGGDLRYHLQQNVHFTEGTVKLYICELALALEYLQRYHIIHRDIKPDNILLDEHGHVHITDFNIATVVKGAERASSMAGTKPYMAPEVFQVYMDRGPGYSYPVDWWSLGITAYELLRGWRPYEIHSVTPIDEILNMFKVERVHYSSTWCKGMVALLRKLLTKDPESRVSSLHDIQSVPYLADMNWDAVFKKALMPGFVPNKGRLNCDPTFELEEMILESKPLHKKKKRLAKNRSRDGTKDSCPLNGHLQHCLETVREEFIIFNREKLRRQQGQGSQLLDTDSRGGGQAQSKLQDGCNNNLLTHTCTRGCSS
Serine/threonine-protein kinase 17A (Homo sapiens), sequence (Q9UEE5 whole entry): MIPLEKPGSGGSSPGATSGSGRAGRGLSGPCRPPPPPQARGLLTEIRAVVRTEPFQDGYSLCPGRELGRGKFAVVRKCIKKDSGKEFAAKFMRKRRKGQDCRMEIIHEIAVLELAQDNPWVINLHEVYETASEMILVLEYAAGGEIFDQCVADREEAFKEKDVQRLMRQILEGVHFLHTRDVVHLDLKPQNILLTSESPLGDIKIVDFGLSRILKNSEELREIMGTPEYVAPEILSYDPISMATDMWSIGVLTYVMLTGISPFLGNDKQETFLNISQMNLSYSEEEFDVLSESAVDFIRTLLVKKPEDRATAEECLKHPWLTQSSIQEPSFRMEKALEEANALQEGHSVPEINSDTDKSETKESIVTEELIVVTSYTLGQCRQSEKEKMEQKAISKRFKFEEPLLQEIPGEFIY
Mast/stem cell growth factor receptor Kit (Homo sapiens), P10721 [D816H], sequence (P10721 whole entry D816H): as the sequence (P10721 whole entry D816V) above, with V816H counted along it

`C=CCOC(=O)c1cc(-c2ccc(/C=C3/NC(=S)NC3=O)o2)ccc1Cl`: the Activity in assay [1] was 94%; in [2] it was 97%; in assay [3] it was 106%; in assay [4], 92%; in assay [5], 96%; in assay [6], 100%. The Activity was 86% in assay [7]; 100% in assay [8]; 16% in assay [9]; 97% in assay [10]; 83% in assay [11]; 91% in the assay filed under Homo sapiens. The Activity in assay [12] is 97%; in [13], 86%; in assay [14], 105%; in assay [15], 103%; in [16], 24%; in [17] it was 94%. Moreover, the Activity in assay [18] is 96%; in assay [19] it was 93%; in assay [20] it was 92%.

Turning to `N=C1NC(=O)/C(=C\c2ccc(-c3cccc([N+](=O)[O-])c3)o2)S1`, the Activity stood at 101% in [1]; 94% in assay [2]; 103% in assay [3]; 94% in [4]; 97% in assay [5]; 89% in [6]. The Activity in [7] was found to be 83%; in assay [8] it was 99%; in assay [9] it was 25%; in assay [10], 89%; in [11], 80%; in the assay listed under Homo sapiens it was 89%. The Activity was determined as 107% in assay [12]; 102% in [13]; 98% in [14]; 101% in [15]; 44% in assay [16]; 89% in assay [17]. The Activity was 92% in assay [18], 94% in assay [19] and 99% in assay [20].
